Results: article PMC11125039, “An Effective Modification Strategy to Build Multifunctional Peptides Based on a Trypsin Inhibitory Peptide of the Kunitz Family” (Pharmaceutics, 2024)
Read-outs that look alike come from different tables or passages of the source. Bridge positions count the residues as written; N and C are the ends. Peptide text beside a SMILES is read from it.

What was measured:
[1] = test system: E. coli (BAA 2340); experiment: Time-killing kinetic assay; type: cell-based, Escherichia coli
Procedure: (§1) The time-killing kinetic assay was executed to explore the killing efficiency of the peptides against bacteria. […] The bacteria were cultured using the same method as that employed in the antimicrobial activity determination assay. […] All colonies were counted and recorded after the seeded plates had been incubated at 37 °C for 24 h.

[2] = test system: E. coli (NCTC 13846); experiment: Time-killing kinetic assay; type: cell-based, Escherichia coli; settings: for killing kinetics (in words): MIC, 2 × MIC and 4 × MIC
Procedure: as §1

[3] = test system: E. coli (BAA 2340)-infected waxworms; type: in vivo, Galleria mellonella
Procedure: The larvae of Galleria mellonella were used to evaluate the in vivo antibacterial activity of the peptides. In this assay, the larvae (250 ± 25 mg) (Livefood UK Ltd., Rooks Bridge, UK) of the infected group were infected with 10 μL of a bacterial suspension (1 × 10^7 CFU/mL). After one hour, 10 μL of a peptide solution was injected into each infected larva. As a positive control, infected larvae received 20 mg/kg of rifampicin. The vehicle control consisted of uninfected larvae administered 10 μL of PBS. All larvae were then monitored every 24 h for a duration of five days.

[4] = test system: H838; experiment: Antiproliferation assay (MTT); type: cell-based, human; settings: H838, 24 h
Procedure: (§4) The tested human cell lines in this assay included cancerous and non-cancerous cell lines: a human breast cancer cell line (MCF-7), a human lung carcinoma cell line (H838), a human colorectal carcinoma cell line (HCT116), and a human glioblastoma astrocytoma cell line (U251MG); these cell lines were incubated with the peptides at concentrations between 10^−4 to 10^−9 M to study their antiproliferation ability against cancer cells. Also, for the safety evaluation, a human skin keratinocyte cell line (HaCaT) was selected to investigate the cytotoxicity of peptides against normal human cells.
(§5) At first, after the stock cells were revived, they were transferred into a 75 mL flask with 10 mL of the corresponding culture medium and cultured for 3–5 days at 37 °C until most cells had attached to the flask wall. Then, the culture medium was removed, and 10 mL of PBS was used to wash the wall twice and discarded. Subsequently, 3–4 mL of a trypsin solution was added for 2–3 min to detach the cells from the container wall and then 8–10 mL of FBS was added to stop the digestion reaction. The cell suspension was transferred into a 15 mL tube and centrifuged. The supernatant was removed and 4 mL of complete growth medium was added to this tube to prepare a stock cell suspension. […] After 10 min of shaking, the cell viability in each well was read at a wavelength of 570 nm.

[5] = test system: U251MG; experiment: Antiproliferation assay (MTT); type: cell-based, human; settings: 24 h
Procedure: as §4
(§6) At first, after the stock cells were revived, they were transferred into a 75 mL flask with 10 mL of the corresponding culture medium and cultured for 3–5 days at 37 °C until most cells had attached to the flask wall. Then, the culture medium was removed, and 10 mL of PBS was used to wash the wall twice and discarded. Subsequently, 3–4 mL of a trypsin solution was added for 2–3 min to detach the cells from the container wall and then 8–10 mL of FBS was added to stop the digestion reaction. The cell suspension was transferred into a 15 mL tube and centrifuged. The supernatant was removed and 4 mL of complete growth medium was added to this tube to prepare a stock cell suspension. Approximately 10 µL of a mixture containing an equal volume of trypan blue and cell medium was dropped into a chamber to measure the density of cells under the microscope. Based on the cell density, the cell suspension was diluted with foetal bovine serum (FBS) (Sigma-Aldrich, St. Louis, MO, USA) to the standard cell density (H838, MCF-7: 8 × 10^4; U251MG: 5 × 10^4; HCT116: 2 × 10^5; HaCaT: 2 ×10^5 cells/mL). Then, it was seeded into a 96-well plate at 100 μL/well. After 20–24 h incubation, 100 μL of serum-free medium was used to replace the previous FBS medium and the plate was incubated another 4 h for cell starvation. […] After 10 min of shaking, the cell viability in each well was read at a wavelength of 570 nm.

[6] = test system: HCT116; experiment: Antiproliferation assay (MTT); type: cell-based, human; settings: HCT116, 24 h
Procedure: as §4
At first, after the stock cells were revived, they were transferred into a 75 mL flask with 10 mL of the corresponding culture medium and cultured for 3–5 days at 37 °C until most cells had attached to the flask wall. Then, the culture medium was removed, and 10 mL of PBS was used to wash the wall twice and discarded. Subsequently, 3–4 mL of a trypsin solution was added for 2–3 min to detach the cells from the container wall and then 8–10 mL of FBS was added to stop the digestion reaction. The cell suspension was transferred into a 15 mL tube and centrifuged. The supernatant was removed and 4 mL of complete growth medium was added to this tube to prepare a stock cell suspension. Approximately 10 µL of a mixture containing an equal volume of trypan blue and cell medium was dropped into a chamber to measure the density of cells under the microscope. Based on the cell density, the cell suspension was diluted with foetal bovine serum (FBS) (Sigma-Aldrich, St. Louis, MO, USA) to the standard cell density (H838, MCF-7: 8 × 10^4; U251MG: 5 × 10^4; HCT116: 2 × 10^5; HaCaT: 2 ×10^5 cells/mL). Then, it was seeded into a 96-well plate at 100 μL/well. After 20–24 h incubation, 100 μL of serum-free medium was used to replace the previous FBS medium and the plate was incubated another 4 h for cell starvation. At the same time, the peptide was dissolved in DMSO at a concentration of 10^−2 M and then mixed with the serum-free medium at working concentrations ranging from 10^−7 to 10^−4 M. Finally, the medium in the 96-well plate was replaced with the peptide solutions. The experimental group used 100 μL of the working concentration peptide solution. The vehicle group consisted of 1 µL of DMSO and 99 µL of serum-free medium. The blank and growth groups both comprised 100 µL of serum-free medium. The loaded 96-well plate was incubated for another 24 h for the treatment. The next day, 10 µL of MTT was added to each well and incubated for 2 h, after which, all media in each well were discarded and substituted with 100 μL of DMSO. After 10 min of shaking, the cell viability in each well was read at a wavelength of 570 nm.

[7] = test system: E. coli (ATCC CRM 8739); experiment: SYTOX Green permeability assay; type: cell-based, Escherichia coli; settings: at the MIC
Procedure: (§2) The SYTOX^TM Green Nucleic Acid Stain (ThermoFisher Scientific, Waltham, MA, USA) assay was used to investigate the antibacterial mechanism of the peptides as they cannot cross intact membranes, but can easily penetrate the damaged membranes characteristic of dead cells.
(§3) After being sub-cultured for 2 h, the bacteria were centrifuged at 1000× g for 10 min at 4 °C; then, the culture medium was discarded. […] After a third wash, the bacteria were diluted with the same solution until they reached the logarithmic growth phase in which the OD value just reached 0.70 at a wavelength of 590 nm. […] Finally, 10 μL of SYTOX^TM green nucleic acid stain (5 μM) was added to the plate and the mixture was incubated at 37 °C under dark conditions for another 5 min. […] Bacterial medium with 5% TSB acted as the negative control; bacterial medium treated with a melittin peptide solution (8 μM) was set as the positive control; 5% TSB alone was the blank control.

[8] = test system: E. coli (BAA 2340); experiment: SYTOX Green permeability assay; type: cell-based, Escherichia coli; settings: at the MIC
Procedure: as §2, §3

[9] = test system: E. coli (NCTC 13846); experiment: SYTOX Green permeability assay; type: cell-based, Escherichia coli; settings: at the MIC
Procedure: as §2, §3

[10] = test system: HaCaT; experiment: Antiproliferation assay (MTT), normal cell cytotoxicity; type: cell-based, human; settings: HaCaT (normal cell line), 24 h
Procedure: as §4, §6

[11] = test system: MCF-7; settings: MCF-7, 24 h, MTT
Procedure: as §4, §5

[12] = 4 × MIC of peptide, after 120 h of infection

Row | SMILES | time to kill bacteria ([1]; at the MIC) [min] | killing kinetics (in words) [2] | mortality of infected larvae [3, 12] [%] | IC50 [4] | IC50 [5] | IC50 [6] | IC50 [10] | IC50 [11] | further results
1 | CC[C@H](C)[C@H](N)C(=O)N[C@@H](CCCCN)C(=O)N[C@@H](Cc1ccccc1)C(=O)N[C@@H](CCCCN)C(=O)N[C@H](C(=O)N[C@@H](Cc1c[nH]cn1)C(=O)N[C@@H](Cc1ccccc1)C(=O)N[C@@H](CCCNC(=N)N)C(=O)N[C@H]1CSSC[C@@H](C(=O)O)NC(=O)[C@H](Cc2ccccc2)NC(=O)[C@H](C)NC(=O)[C@H](C)NC(=O)[C@H](CCCCN)NC1=O)C(C)C [OSTI−1696] (H-IKFKVHFRCKAAFC-OH; disulfide 9-14; N-terminus and C-terminus assumed) | ≤ 10 | almost instant bactericidal activity | 20 | N.I. | N.I. | N.I. | – | – | time to kill bacteria ([1]; at 2 × MIC): ≤ 5 min; time to kill bacteria ([1]; at 4 × MIC): ≤ 5 min
2 | CC[C@H](C)[C@H](NC(=O)[C@@H](N)C(C)C)C(=O)N[C@@H](Cc1ccccc1)C(=O)N[C@@H](CCCCN)C(=O)N[C@H](C(=O)N[C@@H](Cc1ccccc1)C(=O)N[C@@H](Cc1c[nH]c2ccccc12)C(=O)N[C@@H](CCCNC(=N)N)C(=O)N[C@H]1CSSC[C@@H](C(=O)O)NC(=O)[C@H](Cc2ccccc2)NC(=O)[C@H](C)NC(=O)[C@H](C)NC(=O)[C@H](CCCCN)NC1=O)C(C)C [OSTI−1716] (H-VIFKVFWRCKAAFC-OH; disulfide 9-14; N-terminus and C-terminus assumed) | – | – | – | – | – | N.I. | – | – | –
3 | CC[C@H](C)[C@H](NC(=O)[C@H](CC(N)=O)NC(=O)[C@@H](NC(=O)[C@H](C)N)C(C)C)C(=O)N1CCC[C@H]1C(=O)N[C@@H](Cc1ccccc1)C(=O)N[C@@H](CCCCN)C(=O)N[C@H](C(=O)N[C@@H](Cc1c[nH]cn1)C(=O)N[C@@H](Cc1ccccc1)C(=O)N[C@@H](CCCNC(=N)N)C(=O)N[C@H]1CSSC[C@@H](C(=O)O)NC(=O)[C@H](Cc2ccccc2)NC(=O)[C@H](C)NC(=O)[C@H](C)NC(=O)[C@H](CCCCN)NC1=O)C(C)C [OSTI−1949] (H-AVNIPFKVHFRCKAAFC-OH; disulfide 12-17; N-terminus and C-terminus assumed) | – | – | – | N.I. | N.I. | N.I. | N.I. | N.I. | uptake of SYTOX Green [7]: approximately 50%; uptake of SYTOX Green [8]: approximately 50%; uptake of SYTOX Green [9]: approximately 50%
4 | CC(C)[C@H](NC(=O)[C@H](C)N)C(=O)N[C@@H](CCCCN)C(=O)N[C@@H](CCCNC(=N)N)C(=O)N[C@@H](C)C(=O)N[C@H](C(=O)N[C@@H](CCCCN)C(=O)N[C@@H](CCCNC(=N)N)C(=O)N[C@@H](Cc1ccccc1)C(=O)N[C@@H](CCCCN)C(=O)N[C@H](C(=O)N[C@@H](Cc1c[nH]cn1)C(=O)N[C@@H](Cc1ccccc1)C(=O)N[C@@H](CCCNC(=N)N)C(=O)N[C@H]1CSSC[C@@H](C(=O)O)NC(=O)[C@H](Cc2ccccc2)NC(=O)[C@H](C)NC(=O)[C@H](C)NC(=O)[C@H](CCCCN)NC1=O)C(C)C)C(C)C [OSTI−2363] (H-AVKRAVKRFKVHFRCKAAFC-OH; disulfide 15-20; N-terminus and C-terminus assumed) | ≤ 5 | almost instant bactericidal activity | 40 | – | N.I. | N.I. | N.I. | N.I. | killing kinetics (in words) ([1]; MIC, 2 × MIC and 4 × MIC): almost instant bactericidal activity; time to kill bacteria ([2]; lowest tested concentration (MIC)): ≤ 5 min
5 | CC[C@H](C)[C@H](NC(=O)[C@H](CC(N)=O)NC(=O)[C@@H](NC(=O)[C@H](C)N)C(C)C)C(=O)N1CCC[C@H]1C(=O)N[C@@H](Cc1ccccc1)C(=O)N[C@@H](CCCCN)C(=O)N[C@H](C(=O)N[C@@H](Cc1c[nH]cn1)C(=O)N[C@@H](Cc1ccccc1)C(=O)N[C@@H](CCCCN)C(=O)N[C@H](C(=O)N[C@@H](Cc1c[nH]cn1)C(=O)N[C@@H](Cc1ccccc1)C(=O)N[C@@H](CCCNC(=N)N)C(=O)N[C@H]1CSSC[C@@H](C(=O)O)NC(=O)[C@H](Cc2ccccc2)NC(=O)[C@H](C)NC(=O)[C@H](C)NC(=O)[C@H](CCCCN)NC1=O)C(C)C)C(C)C [OSTI−2461] (H-AVNIPFKVHFKVHFRCKAAFC-OH; disulfide 16-21; N-terminus and C-terminus assumed) | – | – | – | – | – | N.I. | N.I. | – | –
6 | CO[C@H]1/C=C/O[C@@]2(C)Oc3c(C)c(O)c4c(O)c(c(/C=N/N5CCN(C)CC5)c(O)c4c3C2=O)NC(=O)/C(C)=C\C=C\[C@H](C)[C@H](O)[C@@H](C)[C@@H](O)[C@@H](C)[C@H](OC(C)=O)[C@@H]1C [rifampicin, reference compound] | – | – | – | – | – | – | – | – | mortality of infected larvae ([3]; 20 mg/kg, 5 days, positive control): 20%
